According to PMC6768323, “Adverse Maternal, Fetal, and Postnatal Effects of Hexafluoropropylene Oxide Dimer Acid (GenX) from Oral Gestational Exposure in Sprague-Dawley Rats” (Environmental Health Perspectives, 2019):

Tested on: F1 Sprague-Dawley rats
Test: Pilot postnatal study, GD14-18 oral maternal dosing
Assay type: in vivo
Experimental: A single-dose level pilot study utilizing time-mated SD rats was conducted to examine the potential postnatal effects of in utero exposure to HFPO-DA from a similar dosing interval to the fetal studies (Figure 1B). The study consisted of dams exposed to oral daily dosing with either water vehicle or 125mg/kg HFPO-DA ( n=3 for each) from GD14–18. […] Dams gave birth naturally beginning on the morning of GD22 [i.e., postnatal day (PND) 0]. On PND2 all pups were sexed, weighed, and anogenital distance (AGD) was measured using a Leica MZ6 stereomicroscope (Leica Microsystems) fitted with an ocular micrometer. On PND13, the offspring were sexed, weighed, and evaluated for retention of female-like nipples/areolae. On PND27, the dams were euthanized, uterine implantation sites were scored, pups were weaned to two animals per cage by sex and treatment group, and food was changed to NTP2000 rodent diet. Beginning on PND31 for female offspring and PND41 for male offspring, individuals were evaluated daily for markers of pubertal onset, vaginal opening (VO) for females and balano-preputial separation (BPS) for males.
Beginning at PND128, adult F1 females were weighed, euthanized via decapitation, and examined via necropsy for any reproductive tract malformations and tissue weights were collected for uterus, paired ovaries, liver, paired kidneys, and visceral adipose tissue. Similarly, beginning at PND146 adult F1 males were weighed, euthanized, and examined for reproductive tract malformations and weights were collected for all relevant reproductive tissues. Male necropsy included weights of glans penis, ventral prostate, paired seminal vesicles, paired testes, paired epididymides, levator ani–bulbocavernosus (LABC), paired bulbourethral (Cowper’s) glands, paired kidneys, visceral adipose tissue, and epididymal adipose tissue. […] Total sperm counts in epididymal sections were measured using a Multisizer 3 Coulter counter (Beckman Coulter).

[1] = adult F1 female, 125 mg/kg/d, individual means
[2] = adult F1 female, 125 mg/kg/d, litter means
[3] = adult F1 male, 125 mg/kg/d, individual means
[4] = adult F1 male, 125 mg/kg/d, litter means

O=C(O)C(F)(OC(F)(F)C(F)(F)C(F)(F)F)C(F)(F)F (stereo not shown) [HFPO-DA, Hexafluoropropylene oxide dimer acid]
viable pups per litter versus control dams (125 mg/kg): equal numbers of viable pups
pup survival (125 mg/kg GD14-18): no effect on pup survival
Female AGD on PND2 (125 mg/kg/d, individual means): 1.5 ± 0.0 mm
Female BW at VO (125 mg/kg/d, individual means): 123.4 ± 2.3 g
Female BW on PND27 (125 mg/kg/d, individual means): 79.1 ± 1.4 g
Female NR on PND13 (125 mg/kg/d, individual means): 12.0 ± 0.0
Female pup BW on PND2 (125 mg/kg/d, individual means): 7.5 ± 0.1 g
Female pup BW on PND13 (125 mg/kg/d, individual means): 28.7 ± 0.3 g
Male AGD on PND2 (125 mg/kg/d, individual means): 3.7 ± 0.1 mm
Male BW at PPS (125 mg/kg/d, individual means): 211.4 ± 3.7 g
Male BW on PND27 (125 mg/kg/d, individual means): 81.1 ± 1.6 g
Male NR on PND2 (125 mg/kg/d, individual means): 0.1 ± 0.1
Male pup BW on PND2 (125 mg/kg/d, individual means): 7.8 ± 0.1 g
Male pup BW on PND13 (125 mg/kg/d, individual means): 29.3 ± 0.3 g
Dam BW GD14 (125 mg/kg/d, litter means): 325.5 ± 5.2 g
Dam BW GD18 (125 mg/kg/d, litter means): 354.9 ± 9.0 g
Dam BW gain (125 mg/kg/d, litter means): 29.4 ± 6.0 g
Female AGD on PND2 (125 mg/kg/d, litter means): 1.5 ± 0.1 mm
Female BW at VO (125 mg/kg/d, litter means): 124.3 ± 4.2 g
Female BW on PND27 (125 mg/kg/d, litter means): 78.2 ± 3.5 g
Female NR on PND13 (125 mg/kg/d, litter means): 12.0 ± 0.0
Female pup BW on PND2 (125 mg/kg/d, litter means): 7.5 ± 0.1 g
Female pup BW on PND13 (125 mg/kg/d, litter means): 28.7 ± 0.1 g
Male AGD on PND2 (125 mg/kg/d, litter means): 3.7 ± 0.1 mm
Male BW at PPS (125 mg/kg/d, litter means): 214.6 ± 8.0 g
Male BW on PND27 (125 mg/kg/d, litter means): 83.3 ± 4.7 g
Male NR on PND2 (125 mg/kg/d, litter means): 0.1 ± 0.1
Male pup BW on PND2 (125 mg/kg/d, litter means): 7.8 ± 0.1 g
Male pup BW on PND13 (125 mg/kg/d, litter means): 29.5 ± 0.5 g
No. implants (125 mg/kg/d, litter means): 13.0 ± 1.0
No. pups on PND2 (125 mg/kg/d, litter means): 12.7 ± 0.7
Post-implantation loss on PND2 (125 mg/kg/d, litter means): 2.2 ± 2.2%
adult female AGD and liver weight (125 mg/kg, individual basis): significantly smaller AGD and lower liver weight
weights of right, left, paired testes, right, left, paired epididymides, epididymal adipose tissue (125 mg/kg, individual basis): significantly lower tissue weights
female offspring body weight (PND2, PND27, at VO) (125 mg/kg, individual pup basis): significantly lower than controls
adult female necropsy end points (125 mg/kg, litter means basis): no significant differences
end points measured through the onset of puberty (125 mg/kg, litter means basis): no significant differences
right epididymis tissue weight, adult males (125 mg/kg, litter means basis): significantly lower
AGD [1]: 16.7 ± 0.7 mm
Body weight [1]: 370.3 ± 12.3 g
Liver [1]: 11.3 ± 0.3 g
Paired kidneys [1]: 2.1 ± 0.1 g
Paired ovaries [1]: 123.2 ± 3.6 mg
Uterus [1]: 635.6 ± 48.9 mg
Visceral adipose tissue [1]: 25.2 ± 2.4 g
AGD [2]: 16.8 ± 0.5 mm
Body weight [2]: 374.0 ± 25.0 g
Liver [2]: 11.4 ± 0.5 g
Paired kidneys [2]: 2.1 ± 0.1 g
Paired ovaries [2]: 122.5 ± 8.6 mg
Uterus [2]: 635.4 ± 74.3 mg
Visceral adipose tissue [2]: 25.1 ± 4.6 g
Body weight [3]: 676.5 ± 10.6 g
Cauda sperm [3]: 159.7 ± 4.7 106
Corpus/caput sperm [3]: 72.6 ± 2.3 106
Epididymal adipose tissue [3]: 7.8 ± 0.5 g
Glans penis [3]: 134.5 ± 3.0 mg
LABC [3]: 1.6 ± 0.0 g
Left epididymis [3]: 668.1 ± 10.4 mg
Left testis [3]: 1.9 ± 0.0 g
Liver [3]: 20.1 ± 0.4 g
Paired Cowper’s glands [3]: 163.4 ± 5.2 mg
Paired epididymides [3]: 1331.2 ± 21.2 mg
Paired kidneys [3]: 3.4 ± 0.1 g
Paired seminal vesicles [3]: 1.8 ± 0.1 g
Paired testes [3]: 3.8 ± 0.1 g
Right cauda [3]: 310.5 ± 6.2 mg
Right corpus/caput [3]: 352.6 ± 7.1 mg
Right epididymis [3]: 663.1 ± 11.2 mg
Right testis [3]: 1.9 ± 0.0 g
Total epididymal sperm [3]: 185.8 ± 4.7 106
Ventral prostate [3]: 682.1 ± 32.7 mg
Visceral adipose tissue [3]: 25.8 ± 1.5 g
Body weight [4]: 682.6 ± 13.4 g
Cauda sperm [4]: 160.0 ± 3.4 106
Corpus/caput sperm [4]: 72.0 ± 2.8 106
Epididymal adipose tissue [4]: 8.2 ± 1.0 g
Glans penis [4]: 135.0 ± 1.5 mg
LABC [4]: 1.5 ± 0.1 g
Left epididymis [4]: 664.2 ± 12.5 mg
Left testis [4]: 1.9 ± 0.0 g
Liver [4]: 20.2 ± 0.4 g
Paired Cowper’s glands [4]: 165.6 ± 9.7 mg
Paired epididymides [4]: 1323.7 ± 24.3 mg
Paired kidneys [4]: 3.4 ± 0.0 g
Paired seminal vesicles [4]: 1.8 ± 0.1 g
Paired testes [4]: 3.8 ± 0.1 g
Right cauda [4]: 309.0 ± 6.0 mg
Right corpus/caput [4]: 350.5 ± 5.9 mg
Right epididymis [4]: 659.5 ± 11.8 mg
Right testis [4]: 1.9 ± 0.0 g
Total epididymal sperm [4]: 185.6 ± 2.0 106
Ventral prostate [4]: 678.7 ± 30.1 mg
Visceral adipose tissue [4]: 26.8 ± 2.4 g
